According to BindingDB's records for doi:10.1074/jbc.M113.532804 (University of Wuerzburg, 2014):

What was measured:
[1] = molecular target: T1, Enoyl-[acyl-carrier-protein] reductase [NADPH] FabI (Staphylococcus aureus (strain NCTC 8325 / PS 47), UniProt Q2FZQ3); assay: Inhibition Kinetics Assay; settings: pH 7.5
T1 sequence (Q2FZQ3 whole entry): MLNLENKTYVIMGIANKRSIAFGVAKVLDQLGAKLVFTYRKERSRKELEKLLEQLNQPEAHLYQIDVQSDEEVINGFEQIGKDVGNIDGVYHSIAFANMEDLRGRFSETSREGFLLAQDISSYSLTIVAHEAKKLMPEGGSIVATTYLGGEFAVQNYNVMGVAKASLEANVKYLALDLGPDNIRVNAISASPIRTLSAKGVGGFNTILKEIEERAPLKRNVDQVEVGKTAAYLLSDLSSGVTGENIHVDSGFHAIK
Method: (§1) Kinetics were performed on a Cary 100 spectrophotometer (Varian) at 20 °C.

[2] = molecular target: T2, Enoyl-[acyl-carrier-protein] reductase [NADH] FabI (Escherichia coli (strain K12), UniProt P0AEK4); assay: Inhibition Kinetics Assay; settings: pH 7.5
T2 sequence (P0AEK4 whole entry): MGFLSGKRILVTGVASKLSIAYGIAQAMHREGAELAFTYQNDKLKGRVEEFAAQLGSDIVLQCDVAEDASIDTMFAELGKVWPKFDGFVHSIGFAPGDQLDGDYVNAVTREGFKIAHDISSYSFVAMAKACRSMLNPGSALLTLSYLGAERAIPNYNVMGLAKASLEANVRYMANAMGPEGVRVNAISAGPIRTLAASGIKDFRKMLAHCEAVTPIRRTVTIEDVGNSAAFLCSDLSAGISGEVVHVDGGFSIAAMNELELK
Method: as §1

Work on `Cc1c(N)cccc1Cn1ccc(OCCc2cccs2)cc1=O` [CG400549] yielded a Ki [1] of 1.3 nM.

`CCCCCCc1cc(=O)c(Cc2ccccc2C#N)cn1C` [PT159] was tested, and the Ki [1] was 11 nM.

`CCCCCCc1cc(=O)c(Oc2ccccc2C)cn1C` [PT166] gave a Ki [2] of 7 nM and a Ki [1] of 2.7 nM.

Work on `Cc1ccn(Cc2ccccc2Cl)c(=O)c1` [PT170] yielded a Ki [1] of 229 nM.

In the case of `CCCCCCc1ccn(Cc2ccccc2C)c(=O)c1` [PT171], the Ki [2] is reported as 95.7 nM and the Ki [1] is reported as 11.9 nM.

Work on `CCCCCCc1ccn(Cc2ccccc2Cl)c(=O)c1` [PT172] yielded a Ki [1] of 11 nM.

`CCCCCCc1ccn(Cc2cccc(N)c2C)c(=O)c1` [PT173] showed a Ki [2] of 203 nM and a Ki [1] of 2 nM.

`CCCCCCc1ccn(Cc2ccccc2)c(=O)c1` [PT179] showed a Ki [1] of 19 nM.

`CCCCCCc1ccc(Oc2ccccc2)c(=O)[nH]1` [PT191] gave a Ki [1] of 196 nM.

`CCCCCc1ccn(Cc2ccccc2C#N)c(=O)c1` [PT420] showed a Ki [1] of 29.6 nM.
